Results reported in US10624910B2, “Thrombin-like enzyme for reducing a side effect of an anticancer drug” (priority 2007, dated 2020).
Marks after values point to notes of the source that are not given here.

Key:
Format in all cases: in vivo
male C57BL/6 mice [1] = assay: Reducing effect of batroxobin on lethal toxicity caused by adriamycin; settings: ADM 3 mg/kg i.p. (+ batroxobin 30 BU/kg i.p.) once every other day, 18 times; 41th day after first dose
Excerpt: (§1) The thrombin-like enzyme, batroxobin (hereinafter referred to as DF-521) was used, which is manufactured by Beijing Tobishi Pharmaceutical Co., Ltd. (Beijing, China) with a trade name of Dong Ling Di Fu.
The anticancer drug, adriamycin (hereinafter referred to as ADM) was used, which is manufactured by Hualian Pharmaceutical Factory of Shanghai Pharmaceutical (Group) Co., Ltd.
The laboratory animals, male C57BL/6 mice (weight: 19-22 g) were divided into three groups: control group, adriamycin group (ADM group), and adriamycin+batroxobin group (ADM+DF-521 group), with 10 mice in each group. The control group was administered with physiological saline.
The adriamycin group was given an intraperitoneal dose (3 mg/kg) of adriamycin once every other day. The adriamycin+batroxobin group was given a simultaneous dosage of 3 mg/kg of adriamycin and 30 BU/kg of batroxobin intraperitoneally, once every other day. The drug administration was performed in total of 18 times. The experiment was terminated on the 41th day after the first dose administered. The number of deaths was totaled, and the survival rate was calculated from mortality rate.

C57BL/6 Mice = assay: Reducing effect of batroxobin on bone marrow suppression caused by adriamycin; settings: ADM 3 mg/kg i.p. (+ batroxobin 30 BU/kg i.p.) once every other day; after 9th administration
Excerpt: as §1
The anticancer drug, adriamycin (hereinafter referred to as ADM) was used, which is manufactured by Hualian Pharmaceutical Factory of Shanghai Pharmaceutical Group Co., Ltd.
The laboratory animals, C57BL/6 Mice (weight: 19-22 g) were divided into three groups: control group, adriamycin group (ADM group), and adriamycin+batroxobin (ADM+DF-521 group), with 5-10 mice (n=5 or 10) in one group. The control group was given physiological saline once every other day. The adriamycin group was given an intraperitoneal dose of 3 mg/kg of adriamycin once every other day. The adriamycin+batroxobin group was given an intraperitoneal doses of 3 mg/kg of adriamycin and 30 BU/kg of batroxobin simultaneously, once every other day. After the 9th administration, the experiment was terminated, and the blood was collected from the femoral artery under ether anesthesia using the EDTA anticoagulant. Then, the WBC, RBC counts and Hb value were measured.
Furthermore, the bone marrow nuclear cell (BMNC) count per femur of a mouse was measured with the following procedure. The bone marrow was sampled from 2 femora of a mouse, bone marrow was flushed with the 2 ml physiological saline, and made the bone marrow cell suspension. Twenty of marrow cell suspension was put into 380 μl of 3% acetic acid solution. After the red blood cells were destroyed, the hemocytometer was used for counting the BMNC count under the microscope. Then the BMNC count per femur was calculated.
The above-mentioned BMNC, RBC, WBC counts and Hb value were used as an evaluation index for bone marrow suppression caused by adriamycin.

[2] = system: C57BL/6 male mice inoculated with B16-BL6 murine malignant melanoma cells; assay: Reducing effect of batroxobin on cardiotoxicity caused by adriamycin (H&E histopathology of left ventricular myocardial tissue); settings: batroxobin 20 BU/kg i.p. once a day and/or adriamycin 3 mg/kg i.p. once interval of 2 days; after 20 days
Excerpt: as §1
The anticancer drug, adriamycin (hereinafter referred to as ADM) was used, which is manufactured by Shenzhen Main Luck Pharmaceuticals Inc.
The laboratory animals, C57BL/6 male mice (weight: 16-18 g) were divided into 4 groups: 10 mice in the control group, 7 mice in the batroxobin group, 7 mice in the adriamycin group, and 7 mice in the adriamycin+batroxobin group. Mice from each group were inoculated with a dorsal right lateral subcutaneous injection of 3×10^6 B16-BL6 murine malignant melanoma cells in 0.3 ml of tumor cell suspension. After one day of tumor cell inoculation, the control group was given an intraperitoneal injuction of physiological saline once a day; the batroxobin group was given an intraperitoneal injection of batroxobin (20 BU/kg) once a day; the adriamycin group was given an intraperitoneal injection of adriamycin (3 mg/kg) once interval of 2 days; the adriamycin+batroxobin group was given an intraperitoneal injection of adriamycin (3 mg/kg) once interval of 2 days and an intraperitoneal injection of 20 BU/kg batroxobin once a day after administration of adriamycin. […]

Mouse (ddy) = assay: Acute toxicity of batroxobin (i.v.), mouse
Protocol: (§2) The thrombin-like enzyme, batroxobin is used in the present agent. The acute toxicity (LD50 (BU/kg)) of batroxobin on mice, rats, rabbits and dogs is as follows in Table 1. The acute toxicity test was assessed by the intravenous administration of batroxobin.

Rat (Wistar) = assay: Acute toxicity of batroxobin (i.v.), rat
Protocol: as §2

Rabbit (NW) = assay: Acute toxicity of batroxobin (i.v.), rabbit
Protocol: as §2

Dog (mongrel) = assay: Acute toxicity of batroxobin (i.v.), dog
Protocol: as §2

male C57BL/6 mice [3] = assay: Reducing effect of batroxobin on bone marrow suppression caused by cyclophosphamide; settings: CPA 100 mg/kg i.p. (+ batroxobin 30 BU/kg i.p.) once every other day; after fourth administration (7 days)
Excerpt: as §1
The anticancer chug, cyclophosphamide (hereinafter referred to as CPA) was used, which is manufactured by Shanxi Powerdone Pharmaceutical Co., Ltd.
The laboratory animals, male C57BL/6 mice (weight: […] were divided into three groups: control group, cyclophosphamide group (CPA group), and cyclophosphamide+batroxobin group (CPA+DF-521 group), with five mice in one group. The control group was given physiological saline once every other day. The cyclophosphamide group was given an intraperitoneal dose of 100 mg/kg of cyclophosphamide once every other day. The cyclophosphamide+batroxobin group was given an intraperitoneal dose of 100 mg/kg of cyclophosphamide and 30 BU/kg of batroxobin simultaneously, once every other day. After the fourth administration (7 days after the first administration), blood was collected from the femoral artery under ether anesthesia using the EDTA anticoagulant, and the white blood cell count (WBC), red blood cell count (RBC), hemoglobin value (Hb), and platelet count (Plt) was measured.
The bone marrow nuclear cell count (BMNC) per femur of a mouse was measured by the following procedure. Bone marrow was sampled from 2 femora of a mouse, the marrow was flushed with 2 ml of physiological saline, and made the bone marrow cell suspension. Twenty μl of bone marrow cell suspension was put into […] of 3% acetic acid solution. After the red blood cells were destroyed, the hemocytometer was used for counting the BMNC count under the microscope. Then the BMNC count per femur was calculated.
The above-mentioned BMNC, WBC, RBC, Plt counts and Hb value are used as an evaluation index for bone marrow suppression caused by cyclophosphamide.

male C57BL/6 mice [4] = assay: Reducing effect of batroxobin on bone marrow suppression caused by cisplatin; settings: DDP 0.8 mg/kg i.p. (+ batroxobin 30 BU/kg i.p.) once every other day; after 17th administration (33rd day)
Excerpt: as §1
The anticancer drug, cisplatin (hereinafter referred to as DDP) was used, which is manufactured by Yunnan Gejiu Biochemical Pharmaceutical Co., Ltd.
The laboratory animals, male C57BL/6 Mice (weight: 20-22 g) were divided into 3 groups: control group, cisplatin group (DDP group), and cisplatin+batroxobin group (DDP+DF-521 group); with 10 mice in one group. The control group was given physiological saline once every other day. The cisplatin group was given an intraperitoneal dose of 0.8 mg/kg of cisplatin once every other day. The cisplatin+batroxobin group was given an intraperitoneal dose of 0.8 mg/kg of cisplatin and 30 BU/kg of batroxobin simultaneously, once every other day. After the 17th administration (33rd day after the first administration), the experiment was terminated, blood was collected from the femoral artery under ether anesthesia using the anticoagulant EDTA, and the WBC, RBC, Plt counts and Hb value, were measured.
Furthermore the bone marrow nuclear cell (BMNC) count per femur of a mouse was measured by the following procedure. Bone marrow was sampled from 2 femora of a mouse, the bone marrow was flushed with the 2 ml physiological saline, and made bone marrow cell suspension. Twenty μl of marrow cell suspension was put into 380 μl of 3% acetic acid solution. After the red blood cells were destroyed, the hemocytometer was used for counting the BMNC count under the microscope. Then, the BMNC count per femur was calculated.
The above-mentioned BMNC, WBC, RBC, Plt counts and Hb value were used as an evaluation index for bone marrow suppression caused by cisplatin.

In the case of COc1cccc2c1C(=O)c1c(O)c3c(c(O)c1C2=O)C[C@@](O)(C(=O)CO)C[C@@H]3O[C@H]1C[C@H](N)[C@H](O)[C@H](C)O1 [ADM, adriamycin], the “Survival No/Total No” value (male C57BL/6 mice [1]) is reported as 4/10*, the survival rate % (male C57BL/6 mice [1]) is reported as “(40%)” and the BMNC (C57BL/6 Mice) is reported as 6.9 ± 1.6 ×10^6/bone. The Hb (C57BL/6 Mice) was 94.9 ± 30.5 g/L, the RBC (C57BL/6 Mice) was 6.6 ± 1.5 ×10^12/L and the WBC (C57BL/6 Mice) was 3.4 ± 0.7 ×10^9/L. The “Pathological findings in left ventricular myocardial tissue (H&E) compared to control group” value [2] was “abnormalities were observed”.
With batroxobin the “LD50 Value” (Mouse (ddy)) was 192~210 BU/kg, the “LD50 Value” (Rat (Wistar)) was 105~110 BU/kg and the “LD50 Value” (Rabbit (NW)) was greater than 300 BU/kg. For the same molecule, the “LD50 Value” (Dog (mongrel)) was 190~208 BU/kg and the “Pathological findings in left ventricular myocardial tissue (H&E) compared to control group” value [2] was “abnormalities were not observed”.
For O=P1(N(CCCl)CCCl)NCCCO1 (stereo not shown) [CPA, cyclophosphamide], the BMNC (male C57BL/6 mice [3]) was 2.4 ± 0.4 ×10^6/bone, the Hb (male C57BL/6 mice [3]) was 98.8 ± 9.2 g/L and the Plt (male C57BL/6 mice [3]) was 1081.6 ± 47.4 ×10^9/L. For the same molecule, the RBC (male C57BL/6 mice [3]) was 6.2 ± 0.5 ×10^12/L and the WBC (male C57BL/6 mice [3]) was 0.8 ± 0.3 ×10^9/L.
N.N.[Cl][Pt][Cl] [DDP, cisplatin] was tested, and the BMNC (male C57BL/6 mice [4]) was 11.3 ± 2.6 ×10^6/bone, the Hb (male C57BL/6 mice [4]) was 121.6 ± 10.7 g/L and the Plt (male C57BL/6 mice [4]) was 1059.2 ± 241.5 ×10^9/L. The RBC (male C57BL/6 mice [4]) was 7.4 ± 0.8 ×10^12/L and the WBC (male C57BL/6 mice [4]) was 6.1 ± 2.2 ×10^9/L.
